Test results from article PMC8695704 (RSC Advances, 2021).

Target: T1, recombinant human S-COMT (Homo sapiens, UniProt P21964)
T1 sequence (P21964 1-221 isoform P21964-2): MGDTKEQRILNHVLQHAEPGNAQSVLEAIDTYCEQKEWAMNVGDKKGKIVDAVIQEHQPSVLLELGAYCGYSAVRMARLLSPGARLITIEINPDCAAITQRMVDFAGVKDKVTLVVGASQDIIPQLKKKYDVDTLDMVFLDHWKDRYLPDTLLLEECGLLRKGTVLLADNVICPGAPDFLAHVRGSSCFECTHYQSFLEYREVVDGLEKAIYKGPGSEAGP
Test: COMT inhibition assay with the fluorescent probe substrate 3-BTD
Assay type: biochemical
Conditions: IC50, 3-BTD as substrate

Structure (SMILES) | IC50 [µM]
O=C(O)[C@H]1O[C@@H](Oc2cc3oc(-c4ccc(O)cc4)cc(=O)c3c(O)c2O)[C@H](O)[C@@H](O)[C@@H]1O [Scutellarin, scutellarin] | 0.221 ± 0.032
COc1c(O)cc(O)c2c(=O)cc(-c3ccccc3)oc12 [Wogonin, wogonin] | 24.1 ± 4.96
